What was measured:
[1] = target: Serine/threonine-protein kinase B-raf (Homo sapiens, UniProt P15056); experiment: Biochemical Assay; settings: pH 7.5; 25 °C
Procedure: (§1) Compounds were prepared in DMSO at 10mmol/L and serially diluted in a 96-well plate as the source plate. The intermediate plate consists of 4µL from the source plate mixed with 96µL of 1× kinase buffer (50mmol/L HEPES, pH 7.5; 10mmol/L MgCl2; 1mmol/L EGTA; 0.01% Brij-35). Of 2.5µL was transferred to a 384-well assay plate in duplicates. To the assay plate, 5µL of BRAF 7nmol/L or BRAF V600E 0.7nmol/L, 2.5µL of substrate solution containing Fluorescein-MAP2K1 0.8µmol/L and ATP (for BRAF 2µmol/L, for BRAF V600E 6µmol/L) were added and the assay plate was incubated with the compounds for 1 h at room temperature. The reaction was stopped with the addition of 10µL of detection solution (antibody 4nmol/L and EDTA 20mmol/L in antibody dilution buffer) to each well of the assay plate.

[2] = target: Serine/threonine-protein kinase B-raf [V600E] (Homo sapiens, UniProt P15056, V600E); experiment: Biochemical Assay; settings: pH 7.5; 25 °C
Procedure: as §1

Chain of Serine/threonine-protein kinase B-raf (P15056 whole entry): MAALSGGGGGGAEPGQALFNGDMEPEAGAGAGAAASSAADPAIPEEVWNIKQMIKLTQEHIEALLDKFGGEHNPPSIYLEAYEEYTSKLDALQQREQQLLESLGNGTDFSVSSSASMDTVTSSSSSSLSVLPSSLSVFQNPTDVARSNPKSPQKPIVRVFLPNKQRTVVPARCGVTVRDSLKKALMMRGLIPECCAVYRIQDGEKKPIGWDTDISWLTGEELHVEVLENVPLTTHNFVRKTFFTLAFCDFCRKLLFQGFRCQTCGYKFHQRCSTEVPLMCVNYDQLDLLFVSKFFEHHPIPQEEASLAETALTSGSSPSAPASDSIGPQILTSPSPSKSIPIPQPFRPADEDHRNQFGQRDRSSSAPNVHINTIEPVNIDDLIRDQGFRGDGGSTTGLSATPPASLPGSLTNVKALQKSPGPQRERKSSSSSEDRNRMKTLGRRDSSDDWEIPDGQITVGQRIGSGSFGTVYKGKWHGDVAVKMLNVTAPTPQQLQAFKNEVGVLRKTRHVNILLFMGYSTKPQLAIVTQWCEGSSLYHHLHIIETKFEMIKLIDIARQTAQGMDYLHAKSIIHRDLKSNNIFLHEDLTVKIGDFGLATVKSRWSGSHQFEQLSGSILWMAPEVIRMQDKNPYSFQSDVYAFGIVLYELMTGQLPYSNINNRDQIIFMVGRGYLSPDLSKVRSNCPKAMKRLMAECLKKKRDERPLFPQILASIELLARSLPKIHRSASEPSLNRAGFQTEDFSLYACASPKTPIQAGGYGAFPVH
Chain of Serine/threonine-protein kinase B-raf [V600E] (P15056 2-766 V600E limits assumed): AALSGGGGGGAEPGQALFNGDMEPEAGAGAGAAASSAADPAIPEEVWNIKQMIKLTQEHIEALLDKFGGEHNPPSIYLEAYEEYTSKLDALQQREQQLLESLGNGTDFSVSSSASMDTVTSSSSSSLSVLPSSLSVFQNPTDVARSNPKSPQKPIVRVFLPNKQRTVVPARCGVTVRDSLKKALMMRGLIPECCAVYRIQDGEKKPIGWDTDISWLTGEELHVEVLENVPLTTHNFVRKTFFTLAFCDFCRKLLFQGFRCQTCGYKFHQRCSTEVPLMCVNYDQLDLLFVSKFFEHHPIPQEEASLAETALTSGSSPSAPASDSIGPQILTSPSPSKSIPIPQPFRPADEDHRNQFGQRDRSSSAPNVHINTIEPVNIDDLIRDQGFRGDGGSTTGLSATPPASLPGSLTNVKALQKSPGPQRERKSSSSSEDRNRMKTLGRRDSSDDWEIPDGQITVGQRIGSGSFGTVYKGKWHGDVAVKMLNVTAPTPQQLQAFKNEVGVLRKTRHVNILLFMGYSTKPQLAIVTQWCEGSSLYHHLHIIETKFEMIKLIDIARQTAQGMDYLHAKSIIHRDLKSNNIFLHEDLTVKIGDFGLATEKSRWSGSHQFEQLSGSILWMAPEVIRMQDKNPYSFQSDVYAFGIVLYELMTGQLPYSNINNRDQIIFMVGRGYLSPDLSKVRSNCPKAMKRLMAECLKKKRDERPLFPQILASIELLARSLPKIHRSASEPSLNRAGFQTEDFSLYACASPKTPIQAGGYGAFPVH

SMILES	IC50 [1]	IC50 [2]
Cc1nc(Nc2cccc(NC(=O)Nc3ccc(F)c(Cl)c3)c2)cc(N2CCOCC2)n1 [1-(3-Chloro-4-fluorophenyl)-3-(3-(2-methyl-6-morpholinopyrimidin-4-ylamino)phenyl)urea (Compound 2)]	1070 nM	626 nM
Cc1nc(Nc2cccc(NC(=O)Nc3ccc(Cl)c(C(F)(F)F)c3)c2)cc(N2CCN(C)CC2)n1 [1-(4-Chloro-3-(trifluoromethyl)phenyl)-3-(3-(2-methyl-6-(4-methylpiperazin-1-yl)pyrimidin-4-ylamino)phenyl)urea (Compound 4)]	> 10000 nM	7170 nM
Cc1nc(Nc2cccc(NC(=O)Nc3ccc(Cl)c(C(F)(F)F)c3)c2)cc(N2CCOCC2)n1 [1-(4-Chloro-3-(trifluoromethyl)phenyl)-3-(3-(2-methyl-6-morpholinopyrimidin-4-ylamino)phenyl) urea (Compound 3)]	271 nM	142 nM
Cc1nc(N2CCOCC2)cc(N(C)c2cccc(NC(=O)Nc3ccc(F)c(Cl)c3)c2)n1 [1-(3-Chloro-4-fluorophenyl)-3-(3-(methyl (2-methyl-6-morpholinopyrimidin-4-yl)amino)phenyl)urea (Compound 5)]	366 nM	232 nM

The remaining compounds from weak to strong by IC50 [1], led by results:

IC50 [1]	IC50 [2]	SMILES
5280 nM	4990 nM	Cc1nc(N2CCN(C)CC2)cc(N(C)c2cccc(NC(=O)Nc3ccc(Cl)c(C(F)(F)F)c3)c2)n1 [1-(4-Chloro-3-(trifluoromethyl)phenyl)-3-(3-(methyl (2-methyl-6-(4-methylpiperazin-1-yl)pyrimidin-4-yl)amino)phenyl)urea (Compound 7)]
1370 nM	1370 nM	Cc1nc(N2CCOCC2)cc(N(C)c2cccc(NC(=O)Nc3ccc(Cl)c(C(F)(F)F)c3)c2)n1 [1-(4-Chloro-3-(trifluoromethyl)phenyl)-3-(3-(methyl (2-methyl-6-morpholinopyrimidin-4-yl)amino)phenyl)urea (Compound 6)]
722 nM	298 nM	Cc1nc(Cl)cc(Nc2cccc(NC(=O)Nc3ccc(Cl)c(C(F)(F)F)c3)c2)n1 [1-(3-(6-Chloro-2-methylpyrimidin-4-ylamino)phenyl)-3-(4-chloro-3-(trifluoromethyl)phenyl)urea (Compound 1)]
